Measurements reported in patent publication US8629144B2, “Polymorphic and hydrate forms, salts and process for preparing 6-{difluoro[6-(1-methyl-1H-pyrazol-4-yl)[1,2,4]triazolo[4,3-b]pyridazin-3-yl]methyl}quinoline” (Janssen Pharmaceutica NV, priority 2007, dated 2014).
Values after ≈ are worked out from the molar mass of the structure shown. Like-named read-outs stand apart in the source and are kept apart here.

Key:
Type in all cases: physicochemical
[1] = Slurry conversion on mixtures of Form III and Form I (XRPD); set-up: key to Polymorphic composition (XRPD) after slurry: Form I; *: low amount of product; settings: for Polymorphic composition (XRPD) after slurry: overnight
Method: 30 mg of mixture of Form III and Form I and 0.25 ml solvent (2-propanol; or ethanol/water (8/2, v/v)) were placed in a vial. For each solvent, 2 vials were prepared and stored each at different temperatures (RT, 70° C.) overnight. After storage, the slurry was spread on a paper filter, the solid fractions were collected and dried 2 hours at RT. The polymorphic composition was measured using XRPD.

[2] = Adsorption and desorption of water at 25° C. (Form I)
Method: Adsorption and desorption of water at 25° C. at different conditions of relative humidity was investigated on about 10 mg Form I of compound of formula (I), by registering the weight change as a function of relative humidity.
During an initial drying step a weight loss of 0.05% was registered.

[3] = Aqueous solubility of Forms I, III and hydrate at different pH
Method: Solubility of polymorph Forms I and III and the hydrate form of the compound of formula (I) was tested in aqueous conditions at different pH values.

[4] = Chemical stability of Form I on storage (HPLC, visual inspection)
Method: Chemical stability of Form I was tested in different open storage conditions for periods of 1, 4 and 8 weeks: 40° C./75% RH; 50° C.; RT/<5% RH; RT/56% RH; RT/75% RH and 0.3da ICH high intensity light. The compound was analysed after storage by HPLC and by visual inspection.

[5] = Crystallographic stability of Form I on storage (TGA, DSC, XRPD, IR); set-up: key to IR: ±Ref: contain some small extra signals
Method: The stability of the crystal structure of polymorph Form I of the compound (I) was studied after storage of the compound in open conditions for a period of six weeks at room temperature (RT) under <5%, 56% and 75% relative humidity (RH) at 50° C., and at 40° C. and 75% RH.
The samples were analysed by TGA, DSC, XRPD and IR spectroscopy.

[6] = Stability of the hydrate form in aqueous suspension (XRPD, SEM); settings: aqueous suspension 16 mg/ml
Method: Aqueous suspension of the compound of formula (I) 16 mg/ml was stored at about 4° C. up to 9 days. Samples were taken after 1, 2 and 9 days of storage. The suspensions were spread over a paper filter and dried at room temperature for 2 hours. The obtained materials were analysed by XRPD.
Moreover, the hydrate remained stable in the aqueous medium for at least 9 days (XRD not substantially changed).

[7] = Thermal conversions in DSC oven (XRPD)
Method: Form III or hydrate form were thermally treated in a DSC oven (heating rate 10° C./min) up to selected temperatures (isotherm for 1 min) using an open sample pan. The selected temperatures are for Form III: 110° C. and 170° C.; and for hydrate form: 70° C., 110° C. and 170° C. The polymorphic composition of the obtained fractions was measured by XRPD. Table 12 summarises XRPD patterns in DSC treated Form III. Table 13 summarises XRPD patterns in DSC treated hydrate

[8] = six weeks open storage, 40° C./75% RH
[9] = six weeks open storage, RT/56% RH
[10] = six weeks open storage, RT/75% RH
[11] = six weeks open storage, RT/<5% RH

Cn1cc(-c2ccc3nnc(C(F)(F)c4ccc5ncccc5c4)n3n2)cn1 [Form I, 6-{difluoro[6-(1-methyl-1H-pyrazol-4-yl)[1,2,4]triazolo[4,3-b]pyridazin-3-yl]methyl}quinoline]
Relative polymorph stability ([1]; from RT up to 70° C.): most stable polymorph
Weight loss during initial drying step ([2]; about 10 mg): 0.05%
Water adsorbed by dry product ([2]; depending on the atmospheric humidity): up to 0.5%
Hygroscopic behaviour ([2]; different relative humidity): no hygroscopic behaviour
Solubility ([3]; aqueous medium, simulated gastric fluid, thermodynamic from solid, 0.01 HCl, read-out: Solubility): 100 µg/mL (≈ 265 µM)
Solubility ([3]; aqueous medium, simulated gastric fluid, thermodynamic from solid, 0.1 HCl, read-out: Solubility): 1300 µg/mL (≈ 3450 µM)
Solubility ([3]; pH2): 430 µg/mL (≈ 1140 µM)
Solubility ([3]; pH4): 5 µg/mL (≈ 13.3 µM)
Solubility ([3]; pH6): 3 µg/mL (≈ 7.95 µM)
Solubility ([3]; pH8): 4 µg/mL (≈ 10.6 µM)
Solubility ([3]; pH10): 3 µg/mL (≈ 7.95 µM)
HPLC Sum of impurities ([4]; 0.3da ICH light, 1 w): 0.55 w/w %
Appearance ([4]; 0.3da ICH light, 1 week): slightly yellow
HPLC Sum of impurities ([4]; 40° C./75% RH, 1 w): 0.51 w/w %
Appearance ([4]; 40° C./75% RH, 1 week): slightly yellow
HPLC Sum of impurities ([4]; 40° C./75% RH, 4 w): 0.66 w/w %
Appearance ([4]; 40° C./75% RH, 4 weeks): slightly yellow
HPLC Sum of impurities ([4]; 40° C./75% RH, 8 w): 0.54 w/w %
Appearance ([4]; 40° C./75% RH, 8 weeks): slightly yellow
HPLC Sum of impurities ([4]; 50° C., 1 w): 0.56 w/w %
Appearance ([4]; 50° C., 1 week): slightly yellow
HPLC Sum of impurities ([4]; 50° C., 4 w): 0.59 w/w %
Appearance ([4]; 50° C., 4 weeks): slightly yellow
HPLC Sum of impurities ([4]; 50° C., 8 w): 0.54 w/w %
Appearance ([4]; 50° C., 8 weeks): slightly yellow
HPLC Sum of impurities ([4]; RT/56% RH, 4 w): 0.53 w/w %
Appearance ([4]; RT/56% RH, 4 weeks): slightly yellow
HPLC Sum of impurities ([4]; RT/56% RH, 8 w): 0.53 w/w %
Appearance ([4]; RT/56% RH, 8 weeks): slightly yellow
HPLC Sum of impurities ([4]; RT/75% RH, 4 w): 0.53 w/w %
Appearance ([4]; RT/75% RH, 4 weeks): slightly yellow
HPLC Sum of impurities ([4]; RT/75% RH, 8 w): 0.77 w/w %
Appearance ([4]; RT/75% RH, 8 weeks): slightly yellow
HPLC Sum of impurities ([4]; RT/<5% RH, 4 w): 0.62 w/w %
Appearance ([4]; RT/<5% RH, 4 weeks): slightly yellow
HPLC Sum of impurities ([4]; RT/<5% RH, 8 w): 0.53 w/w %
Appearance ([4]; RT/<5% RH, 8 weeks): slightly yellow
HPLC Sum of impurities ([4]; Reference, 1 w): 0.54 w/w %
Appearance ([4]; Reference, 1 week): slightly yellow
Chemical stability ([4]; all investigated conditions): chemically stable
DSC Max ([5]; 0 days): 201.0 °C
DSC ΔH ([5]; 0 days): 101 J/g
IR ([5]; 0 days): Cryst., Ref
TGA <100° C. ([5]; 0 days): 0.12%
TGA <240° C. ([5]; 0 days): 0.36%
XRD ([5]; 0 days): Cryst., Ref
Crystallographic stability ([5]; after storage under the different conditions): crystallographically stable
DSC Max [5, 8]: 200.5 °C
DSC ΔH [5, 8]: 119 J/g
IR [5, 8]: ~Ref (identical with Form I reference)
TGA <100° C. [5, 8]: 0.33%
TGA <240° C. [5, 8]: 0.48%
XRD [5, 8]: ~Ref (identical with Form I reference)
IR ([5]; six weeks open storage, 50° C.): ~Ref (identical with Form I reference)
TGA <100° C. ([5]; six weeks open storage, 50° C.): 0.31%
TGA <240° C. ([5]; six weeks open storage, 50° C.): 0.57%
XRD ([5]; six weeks open storage, 50° C.): ~Ref (identical with Form I reference)
DSC Max [5, 9]: 200.4 °C
DSC ΔH [5, 9]: 120 J/g
IR [5, 9]: ±Ref
TGA <100° C. [5, 9]: 0.58%
TGA <240° C. [5, 9]: 0.8%
XRD [5, 9]: ~Ref (identical with Form I reference)
DSC Max [5, 10]: 200.1 °C
DSC ΔH [5, 10]: 121 J/g
IR [5, 10]: ±Ref
TGA <100° C. [5, 10]: 0.25%
TGA <240° C. [5, 10]: 0.57%
XRD [5, 10]: ~Ref (identical with Form I reference)
DSC Max [5, 11]: 200.1 °C
DSC ΔH [5, 11]: 124 J/g
IR [5, 11]: ~Ref (identical with Form I reference)
TGA <100° C. [5, 11]: 0.74%
TGA <240° C. [5, 11]: 0.75%
XRD [5, 11]: ~Ref (identical with Form I reference)

Cn1cc(-c2ccc3nnc(C(F)(F)c4ccc5ncccc5c4)n3n2)cn1 [hydrate, 6-{difluoro[6-(1-methyl-1H-pyrazol-4-yl)[1,2,4]triazolo[4,3-b]pyridazin-3-yl]methyl}quinoline]
Time hydrate remained stable in the aqueous medium (XRD not substantially changed) ([6]; about 4° C.): at least 9 days
XRPD measured composition ([7]; DSC treated hydrate, up to 70° C.): hydrate + Form III
XRPD measured composition ([7]; DSC treated hydrate, up to 110° C.): Form III
XRPD measured composition ([7]; DSC treated hydrate, up to 170° C.): mainly Form I
XRPD measured composition ([7]; starting hydrate): hydrate
Solubility ([3]; 0.01 HCl): 56 µg/mL
Solubility ([3]; 0.1 HCl): 810 µg/mL
Solubility ([3]; pH2): 65 µg/mL
Solubility ([3]; pH4): 2 µg/mL
Solubility ([3]; pH6): 1 µg/mL
Solubility ([3]; pH8): 1 µg/mL
Solubility ([3]; pH10): 1 µg/mL

Cn1cc(-c2ccc3nnc(C(F)(F)c4ccc5ncccc5c4)n3n2)cn1 [mixture of Form III and Form I]
Polymorphic composition (XRPD) after slurry ([1]; 2-propanol, 70° C.): I
Polymorphic composition (XRPD) after slurry ([1]; 2-propanol, RT): I
Polymorphic composition (XRPD) after slurry ([1]; ethanol/water (8/2, v/v), 70° C., low amount of product): I*
Polymorphic composition (XRPD) after slurry ([1]; ethanol/water (8/2, v/v), RT): I
XRD patterns of the stored suspensions ([6]; 4° C., 1 day, 2 days and 9 days): compatible with those of the hydrate form
